Test results published in ChEMBL document CHEMBL1201862, “PubChem BioAssay data set” (2004).
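How tested: cells in 96-well plates exposed to compound for 48 hours at five concentrations. GI50 marks 50% less growth.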 Active and inactive are the calls of the source. Cut-off read from the data, not from the text of the source: active = GI50 up to about 1.1 µM and inactive = higher.

Experiments:
Experiment in all cases: growth of human tumour cells (NCI), 48 h
[1] = system: SK-OV-3
[2] = system: K562
[3] = system: DU-145
[4] = system: A498
[5] = system: A549
[6] = system: HCT-116
[7] = system: TK-10
[8] = system: PC-3
[9] = system: HCC 2998
[10] = system: IGROV-1
[11] = system: ACHN
[12] = system: MDA-MB-435
[13] = system: 786-0
[14] = system: UACC-62
[15] = system: OVCAR-3
[16] = system: MDA-N
[17] = system: MDA-MB-231
[18] = system: CCRF-CEM
[19] = system: NCI/ADR-RES
[20] = system: COLO 205
[21] = system: SF-539
[22] = system: SNB-75
[23] = system: HOP-92
[24] = system: Malme-3M
[25] = system: NCI-H226
[26] = system: NCI-H522
[27] = system: T47D
[28] = system: UO-31
[29] = system: MCF7
[30] = system: NCI-H23
[31] = system: OVCAR-4
[32] = system: KM12
[33] = system: UACC-257
[34] = system: SF-268
[35] = system: NCI-H460
[36] = system: HT-29
[37] = system: SK-MEL-28
[38] = system: RPMI-8226
[39] = system: HOP-62
[40] = system: OVCAR-8
[41] = system: SW-620
[42] = system: M14
[43] = system: HCT-15
[44] = system: LOX IMVI
[45] = system: EKVX
[46] = system: MOLT-4
[47] = system: RXF 393
[48] = system: SN12C
[49] = system: SK-MEL-5
[50] = system: SNB-19
[51] = system: SK-MEL-2
[52] = system: SF-295
[53] = system: U-251
[54] = system: CAKI-1
[55] = system: Hs-578T
[56] = system: BT-549
[57] = system: HL-60
[58] = system: SR
[59] = system: OVCAR-5
[60] = system: KM-20L2
[61] = system: M19-MEL
[62] = system: DMS-114
[63] = system: LXFL 529
[64] = system: SNB-78

Structure (SMILES): C=CCN1C(=O)/C(=C/c2ccc(Cl)cc2)N=C1SC/C=C/C
- GI50 [1]: > 100 µM (inactive)
- GI50 [2]: 25.5 µM (inactive)
- GI50 [3]: 60.8 µM (inactive)
- GI50 [4]: 33.9 µM (inactive)
- GI50 [5]: 11.2 µM (inactive)
- GI50 [6]: 17 µM (inactive)
- GI50 [7]: > 100 µM (inactive)
- GI50 [8]: 31.4 µM (inactive)
- GI50 [9]: 49.9 µM (inactive)
- GI50 [10]: 65.5 µM (inactive)
- GI50 [11]: 56.2 µM (inactive)
- GI50 [12]: 33.6 µM (inactive)
- GI50 [13]: 33 µM (inactive)
- GI50 [14]: 42.3 µM (inactive)
- GI50 [15]: 44.6 µM (inactive)
- GI50 [16]: 25.3 µM (inactive)
- GI50 [17]: 42.4 µM (inactive)
- GI50 [18]: 39.8 µM (inactive)
- GI50 [19]: 35.2 µM (inactive)
- GI50 [20]: 32.1 µM (inactive)
- GI50 [21]: > 100 µM (inactive)
- GI50 [22]: 75.7 µM (inactive)
- GI50 [23]: 24.2 µM (inactive)
- GI50 [24]: 33.7 µM (inactive)
- GI50 [25]: > 100 µM (inactive)
- GI50 [26]: 28.4 µM (inactive)
- GI50 [27]: 21 µM (inactive)
- GI50 [28]: 34.7 µM (inactive)
- GI50 [29]: 26.6 µM (inactive)
- GI50 [30]: 32.1 µM (inactive)
- GI50 [31]: 29.2 µM (inactive)
- GI50 [32]: 32.3 µM (inactive)
- GI50 [33]: 37.8 µM (inactive)
- GI50 [34]: 48.3 µM (inactive)
- GI50 [35]: 62.4 µM (inactive)
- GI50 [36]: 30.9 µM (inactive)
- GI50 [37]: 53.2 µM (inactive)
- GI50 [38]: 17.3 µM (inactive)
- GI50 [39]: > 100 µM (inactive)
- GI50 [40]: 29.5 µM (inactive)
- GI50 [41]: 31.8 µM (inactive)
- GI50 [42]: 31 µM (inactive)
- GI50 [43]: 34.2 µM
- GI50 [44]: 34 µM (inactive)
- GI50 [45]: 26.4 µM (inactive)
- GI50 [46]: 17.5 µM (inactive)
- GI50 [47]: 15.7 µM (inactive)
- GI50 [48]: 21.7 µM (inactive)
- GI50 [49]: 24.4 µM (inactive)
- GI50 [50]: 22.9 µM (inactive)
- GI50 [51]: 24.2 µM (inactive)
- GI50 [52]: 46.9 µM (inactive)
- GI50 [53]: 27.4 µM (inactive)
- GI50 [54]: 61.2 µM (inactive)
- GI50 [55]: 37.7 µM (inactive)
- GI50 [56]: 33.9 µM (inactive)
- GI50 [57]: 21.7 µM (inactive)
- GI50 [58]: 17.5 µM (inactive)
- GI50 [59]: 37.8 µM (inactive)

Structure (SMILES): Cn1c(=O)c2nc3c4ccccc4c(=O)n(C)c3nc2n(C)c1=O
- GI50 [60]: > 100 µM (inactive)
- GI50 [1]: > 100 µM (inactive)
- GI50 [2]: > 100 µM (inactive)
- GI50 [5]: > 100 µM (inactive)
- GI50 [6]: > 100 µM (inactive)
- GI50 [7]: > 100 µM (inactive)
- GI50 [9]: > 100 µM (inactive)
- GI50 [10]: > 100 µM (inactive)
- GI50 [11]: > 100 µM (inactive)
- GI50 [13]: > 100 µM (inactive)
- GI50 [14]: > 100 µM (inactive)
- GI50 [15]: > 100 µM (inactive)
- GI50 [20]: > 100 µM (inactive)
- GI50 [21]: > 100 µM (inactive)
- GI50 [61]: > 100 µM (inactive)
- GI50 [22]: > 100 µM (inactive)
- GI50 [23]: > 100 µM (inactive)
- GI50 [62]: > 100 µM (inactive)
- GI50 [24]: > 100 µM (inactive)
- GI50 [25]: > 100 µM (inactive)
- GI50 [28]: > 100 µM (inactive)
- GI50 [30]: > 100 µM (inactive)
- GI50 [32]: > 100 µM (inactive)
- GI50 [63]: > 100 µM (inactive)
- GI50 [33]: > 100 µM (inactive)
- GI50 [34]: > 100 µM (inactive)
- GI50 [36]: > 100 µM (inactive)
- GI50 [64]: > 100 µM (inactive)
- GI50 [37]: > 100 µM (inactive)
- GI50 [38]: > 100 µM (inactive)
- GI50 [40]: > 100 µM (inactive)
- GI50 [41]: > 100 µM (inactive)
- GI50 [43]: > 100 µM
- GI50 [45]: > 100 µM (inactive)
- GI50 [46]: > 100 µM (inactive)
- GI50 [47]: > 100 µM (inactive)
- GI50 [48]: > 100 µM (inactive)
- GI50 [49]: > 100 µM (inactive)
- GI50 [50]: > 100 µM (inactive)
- GI50 [51]: > 100 µM (inactive)
- GI50 [52]: > 100 µM (inactive)
- GI50 [53]: > 100 µM (inactive)
- GI50 [58]: > 100 µM (inactive)
- GI50 [59]: > 100 µM (inactive)
